Patent US20110152218A1, “CRYSTALLINE PHOSPHOLIPID, METHOD FOR ITS PRODUCTION AND USE IN TREATING DAMAGED TISSUE” (priority 2008, published 2011)
Entries after “also recorded” stand apart in the source; their conditions may differ.

Key:
Format in all cases: cell-based, rabbit
[1] = test system: cells derived from the tendon sheath; test: WST-1 proliferation assay, tendon sheath cells
Protocol: (§1) Therefore all three-cell types were established and cultured as separate cell strains.
(§2) Tendon derived fibroblasts were cultured in Dulbecco's Modified Eagles Medium (DMEM) with 10% fetal calf serum, 2 mM glutamine, 100 U/ml penicillin and […] streptomycin (NGM).
(§3) A 5 mg/ml solution of the phospholipid prepared according to Example 1 and referred to in this example as “Pumactant” was dissolved in serum free media in a sterile 100 ml bottle incubated at 37° C. and then diluted further to a concentration of 1 mg/ml.
(§4) Fibroblasts derived from tendons were seeded at 5×10^3/well into a 96 microtitre plate (Greiner) and allowed to attach overnight in minimum media (DMEM supplemented with 0.4% FCS) to maintain cells in a healthy but quiescent state. After 24 hrs, the media was aspirated and replaced by test media (minimum media with concentrations of pumactant; or different concentrations of fetal calf serum; or different concentrations of TGF-β1) and cultured for 24, 48 and 72 hours. Cell number was assessed using WST-1 assay (Roche Products Ltd). Test media was removed and the wells washed twice with minimal media, minimal media was replaced and 10 μl WST-1 solution was added to each well. The cells were incubated for 1 hour in standard tissue culture conditions. The absorbance, which related to the number of viable cells converting the reagent to coloured formazan crystals, was read at 450 nm on a Bio-Rad Plate reader. Experiments were performed in triplicate for each cell strain.

[2] = test system: collagen type I, collagen type III, fibronectin, PAI-1, tPA gene transcription in core derived cells; test: QRT-PCR gene transcription, core derived cells; conditions: 48-hour time course, pumactant 1 mg/ml or TGF-β1 2 ng/ml, n=3
Protocol: Cells were placed in serum free media for 24 hrs prior to stimulation with pumactant or TGF-β1; viability was assessed using Trypan blue (Sigma; data not shown). […] Total RNA was isolated from treated and untreated samples using Trizol (Gibco). Quant-iT™ Ribogreen® RNA kit (Invitrogen) was used to determine RNA concentration. First strand cDNA was synthesized using the StrataScript® first-strand synthesis system (Stratagene™) with oligonucleotide dTs (0.5 μg/μl) according to manufacturer's instructions.
(§5) Two μl of the first strand cDNA product was used for amplification in triplicate in a 25 μl reaction solution containing 12.5 μl of SYBR Green PCR Master Mix (Stratagene™, La Jolla, Calif.) and 10 pM of each primer as per manufacturer's instructions. Primer sequences are identified in Table 1. The primer sequences are also listed in the sequence listing which is attached to the specification of the present application and made a part thereof.
(§6) The PCR reaction was performed on a MX3000P (Stratagene, La Jolla, Calif.). The PCR program consisted of an initial denaturation where the reaction was incubated for 10 min at 95° C., the second step the DNA was amplified for 40 cycles of 30 sec at 95° C. annealing of primers for 1 min at 60° C. and an extension at 72° C. for 30 sec. Dissociation curve was performed to ensure no primer-dimers were present at the end of each PCR run.
(§7) The relative expression software tool (REST©) was used for the calculation of relative expression levels in real-time PCR (Pfaffl et al, 2002). This mathematical model is based on the PCR efficiencies and the mean crossing point deviation between the treated and untreated cells. The target gene expression was normalized with two housekeeping genes: GAPDH and ACTB. Statistical analysis of group differences was performed by Pair Wise Fixed Reallocation Randomization Test©, implemented in the REST-XL software (Pfaffl et al, 2002) and the coefficient of variance was given. Sigma Plot was used to illustrate the logarithmic graphs.

[3] = test system: collagen type I, collagen type III, fibronectin, PAI-1, tPA gene transcription in sheath derived cells; test: QRT-PCR gene transcription, sheath derived cells; conditions: time course, pumactant 1 mg/ml or TGF-β1, n=3
Protocol: (§8) Cells were placed in serum free media for 24 hrs prior to stimulation with pumactant or TGF-β1; viability was assessed using Trypan blue (Sigma; data not shown). Quiescent cells were treated with pumactant (1 mg/ml) for 0-24 hrs or TGF-β1 for 0-24 h ours (positive control). Total RNA was isolated from treated and untreated samples using Trizol (Gibco). Quant-iT™ Ribogreen® RNA kit (Invitrogen) was used to determine RNA concentration. First strand cDNA was synthesized using the StrataScript® first-strand synthesis system (Stratagene™) with oligonucleotide dTs (0.5 μg/μl) according to manufacturer's instructions.
as §5, §6, §7

[4] = test system: tendon core cells (endotenon); test: WST-1 proliferation assay, tendon core cells
Protocol: as §1, §2, §3, §4

[5] = test system: cells derived from the surface of the tendon (epitenon); test: WST-1 proliferation assay, tendon surface cells
Protocol: as §1, §2, §3, §4

[6] = test system: collagen type I, collagen type III, fibronectin, PAI-1, tPA gene transcription in surface derived cells; test: QRT-PCR gene transcription, surface derived cells; conditions: time course
Protocol: as §8, §5, §6, §7

[7] = pumactant 1 mg/ml or TGF-β1, n=3

In the case of “TGF-β1: growth factor used as positive control”, the “cell number of sheath cells compared to control media” value ([1]; 24 hours, the other / various concentrations) is reported as “no statistical significance; also recorded: no statistical changes in cell number”, the “proliferation of sheath cells” value ([1]; 48 hours, any concentration) is reported as “no statistical significance for any concentration” and the “proliferation of sheath cells” value ([1]; 72 hours, 0.5 ng/ml of TGF-β1) is reported as “statistical significant increase”. The PAI-1 gene transcription [2] was “up regulation of gene transcription at 2 and 4 hours but this was only statistically significant at 2 hours; also recorded: statistically significant increase at 2 hrs”, the “collagen type I gene transcription” value [2] was “no statistical change” and the “collagen type III gene transcription” value [2] was “statistically significant down regulation in the early stages of the time course 2, 6 and 8 hours; also recorded: statistically significant down regulation at 2, 6 and 8 hours”. For the same substance, the fibronectin gene transcription [2] was “at 6 h a statistically significant down regulation (p=0.024), which was later, reversed with a statistically significant up regulation at 24 and 48 hours; also recorded: significant down regulation of fibronectin gene transcription at 6 hours (*p=0.024) and a statistically significant up-regulation at 24 hrs (*p=0.03) and 48 hrs”, the tPA gene transcription [2] was “statistically significant down regulation in gene transcription at 1, 2, 6, 8 and 24 hrs 0.01) and 16 hours” and the PAI-1 gene transcription [3] was “no statistical changes over the whole time course”. The “collagen type I gene transcription” value [3] was “up regulate of Collagen type I gene transcription over the time course though this did not reach statistical significance”, the “collagen type III gene transcription” value [3] was “up regulation, which was statistically significant at 6 hours, 8 hours (p=0.03; FIG. 30), 16 and 24 hours; also recorded: statistically significant up regulation at 6 hrs (*p=0.03), 8 hrs (*p=0.037), 16 hrs (*p=0.012) and 24 hrs” and the fibronectin gene transcription [3] was “no statistical changes over the whole time course”. For the same substance, the tPA gene transcription [3] was “down regulation of gene transcription which was statistically significant at 2 hrs (p=0.013), 4 hours and 24 hours; also recorded: statistically significant down regulation at 2 hrs (*p=0.013), 4 hrs (*p=0.001) and 24 hrs”, the “proliferation of core cells” value ([4]; 24 hours, over the tested concentrations, FIG. 25) was “no statistical increase in proliferation” and the “proliferation of core cells” value ([4]; 48 hours, various concentrations) was “no statistical significance”. The “proliferation of core cells” value ([4]; 72 hours, any concentration, FIG. 27) was “no statistical significance”, the “proliferation of surface cells” value ([5]; 24 hours, over the tested concentrations) was “no statistical significant difference at any concentration” and the “proliferation of surface cells” value ([5]; 48 hours, various concentrations of TGF-β1) was “No concentrations of TGF-β1 showed any statistical increase; also recorded: no statistical significance”. The “proliferation of surface cells compared to minimal media” value ([5]; 72 hours, 2 ng/ml of TGF-β1, FIG. 24C) was “statistically significant increase in proliferation; also recorded: increase was identified at 2 ng/ml”, the PAI-1 gene transcription [6, 7] was “up regulation in response to TGF-β1, which was statistically significant at 24 hours for fibronectin (p=0.03) and 4 hours for PAI-1” and the “collagen type III gene transcription” value [6, 7] was “statistically significant down regulation at 1 hrs (*p=0.036), 2 hrs (*p=0.001), 6 hrs (*p=0.038), 16 hrs and 48 hrs”. For the same substance, the fibronectin gene transcription [6, 7] was “up regulation in response to TGF-β1, which was statistically significant at 24 hours for fibronectin” and the “collagen type I gene transcription” value ([6]; pumactant 1 mg/ml or TGF-β1, vs untreated, normalized with GAPDH and ACTB, n=3) was “up regulation of Collagen type I gene transcription which was statistically significant at 24 and 48 hours; also recorded: statistically significant up regulation at 24 hours (*p=0.025) and 48 hours”.
